Patent publication US4190675A (priority 1976, dated 1980)
Values after ≈ are worked out from the molar mass of the structure shown. “Also recorded” adds a separate entry of the source.

Experiments:
Escherichia coli = assay: Antibacterial activity (MIC), Escherichia coli; type: cell-based
rats = assay: Carrageenin-induced paw oedema in rats (Winter); type: in vivo, albino rats, COBS (Charles River) stock
thrombocyte aggregation = assay: Inhibition of thrombocyte aggregation from ADP in vitro (Born and Cross); type: cell-based
red blood cells of rats = assay: Protection of red blood cells from haemolysis induced by Tween 80, in vitro; type: cell-based
Source text: (fiducial limits 95% : 518.0-760.11).

Staphylococcus aureus = assay: Antibacterial activity (MIC), Staphylococcus aureus; type: cell-based
rabbits = assay: Inhibition of histamine-induced bronchospasm by intravenous perfusion in rabbits; type: in vivo; conditions: perfused intravenously 2.5 milligrams per kilogram and per minute
[1] = Acute toxicity in rats (LD50, Litchfield and Wilcoxon); conditions: rat, in vivo, iv, intravenously
[2] = system: isolated Guinea-pig trachea; assay: Relaxation of the isolated Guinea-pig trachea (Costantine); type: cell-based

## C=C1C(O)CC2CC1C2(C)C (stereo not drawn) [Pinocarveol, pinocarveol]
Escherichia coli; Escherichia coli, read-out: Minimum Inhibiting Concentration (MIC)
  MIC: 800 µg/mL (≈ 5.25 mM)
Escherichia coli; Gram-negative germs
  antibacterial activity, grade (in words): poor antibacterial activity
rats; overall summary
  anti-inflammatory action, grade (in words): pronounced anti-inflammatory action
rats; rats, 30 mg/kg intravenously
  inhibition of carrageenin paw oedema compared with Fraction 2 and sobrerol (in words): more intense than those of Fraction 2 and of sobrerol
Thrombocyte aggregation; 160 to 1,280 micrograms/ml, ADP, in vitro
  inhibition of thrombocyte aggregation compared with Fraction 2 and sobrerol (in words): exceeds that of the terpenes of the Fraction 2 and that of sobrerol
Thrombocyte aggregation; overall summary
  antiaggregative action, grade (in words): conspicuous antiaggregative action
Red blood cells of rats; Rattus norvegicus, Erythrocyte, Tween 80, 20 to 200 micrograms/ml, fiducial limits 95%=111.5-153.04, read-out: Effective Concentration 50% (EC 50), protection from haemolysis
  EC50: 132 µg/mL (≈ 0.869 mM)
Red blood cells of rats; overall summary
  antihaemolytic activity, grade (in words): pronounced antihaemolytic activity
Staphylococcus aureus; Gram-positive germs / overall
  antibacterial activity, grade (in words): poor antibacterial activity; also recorded: poor antibacterial action
Staphylococcus aureus; Staphylococcus aureus and Escherichia coli
  antibacterial activity compared with Fraction 2 and sobrerol (in words): more active than sobrerol and as active as Fraction 2
Staphylococcus aureus; Staphylococcus aureus, read-out: Minimum Inhibiting Concentration (MIC)
  MIC: 800 µg/mL (≈ 5.25 mM)
rabbits
  inhibition of histamine-induced bronchospasm compared with Fraction 2 and sobrerol (in words): statistically higher than those of FRACTION 2 and of sobrerol
[1]
  LD50: 140 mg/kg
[2]; in vitro, isolated Guinea-pig trachea
  relaxation of the smooth tracheal muscles, intensity compared with Fraction 2 and sobrerol (in words): statistically higher than that of sobrerol and which can be compared to that of Fraction 2
[2]; overall, in vitro and in vivo
  bronchodilating activity, grade (in words): fair bronchodilating action; also recorded: poor bronchodilating action
